From patent US20120252721A1 (priority 2011, published 2012)
Like-named read-outs stand apart in the source and are kept apart here.

Columns and labels:
[1] = test system: HCV genotype 1b Con1 strain subgenomic luciferase replicon (Zluc); test: Luciferase replicon assay, genotype 1b; type: cell-based; details: Hepatitis C virus
Procedure, shortened: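 Replicon-bearing Huh-7 cells (1×10^4 H1a-luc or 7.5×10^3 Zluc per well) dosed 3 h after plating with ten 5-fold compound dilutions, 72 h at 37 °C/5% CO2. Luciferase measured by ONE-glo luminescence; EC50 from dose-response fits, replicon-free Huh-7 as negative control.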

[2] = test system: HCV genotype 1a H77 strain subgenomic luciferase replicon (H1a-luc); test: Luciferase replicon assay, genotype 1a; type: cell-based; details: Hepatitis C virus, read-out: EC50 1a
Procedure, shortened: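 Huh-7 cells carrying H1a-luc subgenomic replicon (luciferase-neomycin phosphotransferase fusion), seeded at 1×10^4 cells/well, dosed 3 h later with ten 5-fold compound dilutions for 72 h at 37 °C. Replication read as luciferase luminescence; replicon-free Huh-7 cells as negative control. EC50 from dose-response curve fits.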

H1a-luc or Zluc cells = test: in vitro; type: cell-based, human; details: Table 1B, cellular viability
Procedure, shortened: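 Cytotoxicity counter-screen in which the H1a-luc or Zluc cells were compound-treated and viability was read with the CellTiter 96 AQueous One (MTS) reagent by absorbance at 490 nm. CC50 values came from curve fitting.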

[3] = test system: 1a-luc WT (HCV genotype 1a replicon); test: Luciferase replicon transient transfection assay, 1a-luc WT; type: cell-based; details: Hepatitis C virus, 96 h, Huh7.5 cells, 4 days
Experimental: (§1) The luciferase replicon transient transfection assay measures the ability of a test compound to inhibit the replication of a transiently-transfected HCV luciferase-bearing wild-type or mutant replicon in cured human hepatoma cells (Huh7.5). The inhibition of HCV replication was measured by quantification of luciferase protein expression. This assay has been validated using a panel of genotype 1a and 1b replicons bearing mutations known to be associated with resistance to BMS-790052. Briefly, subconfluent Huh7.5 cells were electroporated with 10 μg of wild-type or mutant luciferase-bearing HCV replicon RNA. The cells were then seeded in 96-well opaque white plates at 3×10^4 cells/well in 150 μL/well and incubated for 4 hrs at 37° C./5% CO2. Ten 1:5 serial dilutions of each test compound were made in media (DMEM containing glucose, L-glutamine and sodium pyruvate, 10% fetal bovine serum, 100 IU/mL penicillin, 100 μg/mL streptomycin, 2 mM GlutaMAX, and 1×MEM non-essential amino acids (Mediatech, Inc. and Invitrogen Corp.)) at concentrations that were 4× higher than the final concentrations to be tested and 50 μL/well was added to the transfected cells. Untreated, mock-transfected cells served as a negative control of luciferase expression. The plates were incubated at 37° C./5% CO2 for 4 days whereupon the media was removed and 50 μL of ONE-glo luciferase substrate (Promega) was added to each well. The plates were agitated on a rotating platform at room temperature for 3 min and read in a Victor^3V microplate reader (Perkin-Elmer) using a 700 nm cut-off filter with a 1 sec read time. EC50 values were calculated from dose response curves from the resulting best-fit equations determined by Microsoft Excel and XLfit 4.1 software.

[4] = test system: 1a-luc Q30E (HCV genotype 1a replicon); test: Luciferase replicon transient transfection assay, 1a-luc Q30E; type: cell-based, hepatitis C virus; details: for EC50: Hepatitis C virus, 96 h, Huh7.5 cells, 4 days
Experimental: as §1

[5] = test system: 1a-luc Q30H (HCV genotype 1a replicon); test: Luciferase replicon transient transfection assay, 1a-luc Q30H; type: cell-based, hepatitis C virus; details: for EC50: Hepatitis C virus, 96 h, Huh7.5 cells, 4 days
Experimental: as §1

[6] = test system: 1a-luc L31V (HCV genotype 1a replicon); test: Luciferase replicon transient transfection assay, 1a-luc L31V; type: cell-based, hepatitis C virus; details: for EC50: Hepatitis C virus, 96 h, Huh7.5 cells, 4 days
Experimental: as §1

[7] = test system: 1a-luc Y93C (HCV genotype 1a replicon); test: Luciferase replicon transient transfection assay, 1a-luc Y93C; type: cell-based, hepatitis C virus; details: for EC50: Hepatitis C virus, 96 h, Huh7.5 cells, 4 days
Experimental: as §1

[8] = test system: 1a-luc Y93H (HCV genotype 1a replicon); test: Luciferase replicon transient transfection assay, 1a-luc Y93H; type: cell-based, hepatitis C virus; details: for EC50: Hepatitis C virus, 96 h, Huh7.5 cells, 4 days
Experimental: as §1

[9] = test system: 1a-luc Y93N (HCV genotype 1a replicon); test: Luciferase replicon transient transfection assay, 1a-luc Y93N; type: cell-based, hepatitis C virus; details: for EC50: Hepatitis C virus, 96 h, Huh7.5 cells, 4 days
Experimental: as §1

[10] = test system: ZS11-luc WT (HCV genotype 1b replicon); test: Luciferase replicon transient transfection assay, ZS11-luc WT; type: cell-based, hepatitis C virus; details: for EC50: genotype 1b, ZS11-luc WT, Huh7.5 cells, 4 days; for Ratio: ZS11-luc (Table 1I)
Experimental: as §1

[11] = test system: ZS11-luc L31F (HCV genotype 1b replicon); test: Luciferase replicon transient transfection assay, ZS11-luc L31F; type: cell-based, hepatitis C virus; details: for EC50: Hepatitis C virus, 96 h, Huh7.5 cells, 4 days
Experimental: as §1

[12] = test system: ZS11-luc L31M (HCV genotype 1b replicon); test: Luciferase replicon transient transfection assay, ZS11-luc L31M; type: cell-based, hepatitis C virus; details: for EC50: Hepatitis C virus, 96 h, Huh7.5 cells, 4 days
Experimental: as §1

[13] = test system: ZS11-luc Y93C (HCV genotype 1b replicon); test: Luciferase replicon transient transfection assay, ZS11-luc Y93C; type: cell-based, hepatitis C virus; details: for EC50: Hepatitis C virus, 96 h, Huh7.5 cells, 4 days
Experimental: as §1

[14] = Hepatitis C virus, Huh7.5, 96 h

SMILES	EC50 [1] [nM]	EC50 [2] [nM]	CC50 (H1a-luc or Zluc cells) [nM]	EC50 [3] [nM]	Ratio [4]	EC50 [4] [nM]	EC50 [5] [nM]	Ratio [6]	EC50 [6] [nM]	Ratio [7]	EC50 [7] [nM]	Ratio [8]	EC50 [8] [nM]	Ratio [9]	EC50 [9] [nM]	Ratio [11]	EC50 [11] [nM]	Ratio [12]	EC50 [12] [nM]	Ratio [13]	further results
COC(=O)N[C@H](C(=O)N1CCC[C@H]1c1ncc(-c2ccc(-c3csc4c(-c5cnc([C@@H]6CCCN6C(=O)[C@@H](NC(=O)OC)C(C)C)[nH]5)csc34)cc2)[nH]1)C(C)C [Compound A15, [(S)-1-((S)-2-{4-[4-(6-{2-[(S)-1-((S)-2-methoxycarbonylamino-3-methyl-butyryl)-pyrrolidin-2-yl]-3H-imidazol-4-yl}-thieno[3,2-b]thiophen-3-yl)-phenyl]-1H-imidazol-2-yl}-pyrrolidine-1-carbonyl)-2-methyl-propyl]-carbamic acid methyl ester]	< 0.1	–	–	–	–	–	–	–	–	–	–	–	–	–	–	–	–	–	–	–	EC50 ([2]; genotype 1a): < 0.1 nM
COC(=O)N[C@H](C(=O)N1CCC[C@H]1c1ncc(-c2ccc(-c3csc4c(-c5cnc([C@@H]6CCCN6C(=O)[C@H](NC(=O)OC(C)(C)C)c6ccccc6)[nH]5)csc34)cc2)[nH]1)C(C)C [Compound A111, [(S)-1-((S)-2-{4-[4-(6-{(S)-2-[1-((R)-2-tert-butoxycarbonylamino-2-phenyl-acetyl)-pyrrolidin-2-yl]-3H-imidazol-4-yl}-thieno[3,2-b]thiophen-3-yl)-phenyl]-1H-imidazol-2-yl}-pyrrolidine-1-carbonyl)-2-methyl-propyl]-carbamic acid methyl ester]	< 0.1	0.1 to 1	> 75000	0.04	957	47	2	768	36	146	6	>4859	> 198	>11,202	> 454	8	0.01	7	0.01	4	EC50 [10, 14]: 0.002 nM; EC50 [13]: 0.006 nM
COC(=O)N[C@H](C(=O)N1CCC[C@H]1c1nc2cc(-c3csc4c(-c5ccc(-c6cnc([C@@H]7CCCN7C(=O)[C@H](NC(=O)OC)c7ccccc7)[nH]6)cc5)csc34)ccc2[nH]1)C(C)C [Compound A169, [(S)-1-((S)-2-{6-[6-(4-{(S)-2-[1-((R)-2-methoxycarbonylamino-2-phenyl-acetyl)-pyrrolidin-2-yl]-3H-imidazol-4-yl}-phenyl)-thieno[3,2-b]thiophen-3-yl]-1H-benzoimidazol-2-yl}-pyrrolidine-1-carbonyl)-2-methyl-propyl]-carbamic acid methyl ester]	< 0.1	< 0.1	> 75000	0.002	422	0.9	0.05	425	0.9	40	0.08	4428	9	14,363	30	4	0.01	4	0.009	3	Ratio [5]: 24; EC50 [10, 14]: 0.002 nM; Ratio [10]: 1; EC50 [10]: 0.0017 nM; EC50 [13]: 0.006 nM
COC(=O)N[C@H](C(=O)N1CCC[C@H]1c1ncc(-c2ccc(-c3csc4c(-c5ccc6[nH]c([C@@H]7CCCN7C(=O)[C@H](NC(=O)OC)c7ccccc7)nc6c5)csc34)cc2)[nH]1)C(C)C [Compound A172, [(S)-1-((S)-2-{5-[4-(6-{(S)-2-[1-((R)-2-Methoxycarbonylamino-2-phenyl-acetyl)-pyrrolidin-2-yl]-3H-benzoimidazol-5-yl}-thieno[3,2-b]thiophen-3-yl)-phenyl]-1H-imidazol-2-yl}-pyrrolidine-1-carbonyl)-2-methyl-propyl]-carbamic acid methyl ester]	< 0.1	< 0.1	> 75000	0.004	423	2	0.08	695	3	96	0.4	5427	21	22,328	81	4	0.02	3	0.01	2	Ratio [5]: 21; Ratio [10]: 1; EC50 [13]: 0.01 nM
